These results are taken from ChEMBL document CHEMBL5058564, “EUbOPEN Chemogenomics Library 2 (Incucyte)” (2022).

Assay type in all cases: toxicity, cell-based
One data set has as its system HEK-293T. Briefly: Incucyte cell viability with HEK293T. The conditions noted are these: human, 10 µM, compound concentration 10 uM.
A further data set deals with U2OS. Nature of the data set: Incucyte cell viability with U2OS. The conditions noted are these: human, 10 µM, compound concentration 10 uM.
A further data set has as its system Fibroblast. Briefly: Incucyte cell viability with human fibroblast. The conditions noted are these: 10 µM, compound concentration 10 uM.
Where [1] appears, read: 0 h, replicate number 1, timepoint 0 hours.
The mark [2] stands for this setting: 6 h, replicate number 1, timepoint 6 hours.
Setting [3] is: 12 h, replicate number 1, timepoint 12 hours.
[4] abbreviates: 18 h, replicate number 1, timepoint 18 hours.
The mark [5] stands for this setting: 24 h, replicate number 1, timepoint 24 hours.
The mark [6] stands for this setting: 0 h, replicate number 2, timepoint 0 hours.
[7] abbreviates: 6 h, replicate number 2, timepoint 6 hours.
Setting [8] is: 12 h, replicate number 2, timepoint 12 hours.
[9] abbreviates: 18 h, replicate number 2, timepoint 18 hours.
[10] abbreviates: 24 h, replicate number 2, timepoint 24 hours.
Also: unitless GR value; below 1 slowed growth and below 0 cell loss.

For the molecule `Cl.NCCc1ccc(O)c(O)c1` [DOPAMINE HYDROCHLORIDE], the “Growth Rate” value in the data set on HEK-293T (setting [1]) was 0.96; with HEK-293T (setting [2]) it was 0.72; in the data set on HEK-293T (setting [3]), 0.97; in the data set on U2OS (setting [1]) it was 0.15; in the data set on U2OS (setting [2]), 0.57; in the data set on U2OS (setting [3]) it was 0.79. Also, the “Growth Rate” value was determined as 0.8 with U2OS (setting [4]); 0.95 in the data set on U2OS (setting [5]); 0.12 in the data set with Fibroblast (setting [1]); 0.55 with Fibroblast (setting [6]); 0.26 with Fibroblast (setting [7]); 0.67 in the data set on Fibroblast (setting [8]). The “Growth Rate” value in the data set with Fibroblast (setting [9]) stood at 0.95.

On to `CCc1cc2cc(NS(=O)(=O)c3ccc(C#N)cc3)ccc2n(CC)c1=O`, for which the “Growth Rate” value in the data set with HEK-293T (setting [1]) was 1; with HEK-293T (setting [6]), 0.08; with HEK-293T (setting [2]), 0.21; in the data set with HEK-293T (setting [3]), 0.34; in the data set with HEK-293T (setting [8]) it was 0.96; with HEK-293T (setting [4]), 0.23. Further, the “Growth Rate” value with HEK-293T (setting [9]) is on record as 0.84; in the data set with HEK-293T (setting [5]), 0.13; in the data set on HEK-293T (setting [10]), 0.59; with U2OS (setting [1]), -0.59; in the data set with U2OS (setting [6]), -0.07; with U2OS (setting [2]) it was 0.95. The “Growth Rate” value stood at 0.85 with U2OS (setting [8]); 0.95 in the data set with U2OS (setting [4]); 0.93 in the data set on U2OS (setting [9]); 0.96 in the data set with U2OS (setting [5]); 0.94 with Fibroblast (setting [1]); 0.31 in the data set with Fibroblast (setting [2]). For the same molecule, the “Growth Rate” value in the data set with Fibroblast (setting [7]) is reported as -0.17; with Fibroblast (setting [3]), 0.22; in the data set with Fibroblast (setting [8]), 0.12; with Fibroblast (setting [4]), 0.07; in the data set on Fibroblast (setting [9]), 0.13; in the data set with Fibroblast (setting [5]), -0.17. The “Growth Rate” value in the data set with Fibroblast (setting [10]) stood at 0.07.

As for `O=C1Nc2ccc(I)cc2/C1=C/c1cc(Br)c(O)c(Br)c1`, the “Growth Rate” value in the data set with HEK-293T (setting [1]) is -0.08; in the data set on HEK-293T (setting [6]), 0.11; in the data set on HEK-293T (setting [4]), 0.97; in the data set with HEK-293T (setting [5]), 0.91; in the data set on U2OS (setting [6]), -0.15; in the data set with U2OS (setting [3]), 0.89. In addition, the “Growth Rate” value with Fibroblast (setting [1]) is -0.2; in the data set with Fibroblast (setting [6]), 0.15.

For `C[C@]1(O)CC[C@H]2[C@@H]3CCC4=CC(=O)CCC4=C3C=C[C@@]21C` [METRIBOLONE], the “Growth Rate” value with HEK-293T (setting [1]) was found to be 0.16; in the data set with HEK-293T (setting [6]) it was 0.59; in the data set with HEK-293T (setting [4]), 1; in the data set with HEK-293T (setting [5]), 0.98; in the data set on U2OS (setting [6]) it was 0.07; with U2OS (setting [2]) it was 0.83. Besides, the “Growth Rate” value in the data set with U2OS (setting [3]) was 0.56; with U2OS (setting [8]), 0.92; in the data set on U2OS (setting [4]), 0.54; in the data set on U2OS (setting [9]), 0.92; in the data set on U2OS (setting [5]) it was 0.76; with U2OS (setting [10]) it was 0.86. Further, the “Growth Rate” value with Fibroblast (setting [1]) is listed as 0.89; in the data set with Fibroblast (setting [6]) it was 0.22; in the data set with Fibroblast (setting [2]) it was 0.66; with Fibroblast (setting [7]), 0.85; in the data set with Fibroblast (setting [3]), 0.98; in the data set on Fibroblast (setting [5]) it was 0.98.

For the molecule `COc1ccc(CN(CCN(C)C)c2ccccn2)cc1` [PYRILAMINE], the “Growth Rate” value in the data set on HEK-293T (setting [7]) was 0.74; with HEK-293T (setting [3]) it was 0.94; in the data set on HEK-293T (setting [8]), 0.74; with U2OS (setting [1]), 0.52; with U2OS (setting [9]), 0.91; in the data set with U2OS (setting [5]), 1. Moreover, the “Growth Rate” value with U2OS (setting [10]) amounted to 0.96; in the data set with Fibroblast (setting [6]), 0.99; in the data set with Fibroblast (setting [2]), 0.36; in the data set with Fibroblast (setting [7]), 0.26.

Take `COC[C@@H](CC(C)C)NC1=N/C(=C\c2ccc3ncsc3c2)C(=O)N1C`: the “Growth Rate” value in the data set with HEK-293T (setting [1]) is recorded as -0.43; in the data set with HEK-293T (setting [6]), -0.15; in the data set with HEK-293T (setting [2]), 0.84; in the data set with HEK-293T (setting [3]), 0.24; with HEK-293T (setting [8]), 0.41; with HEK-293T (setting [4]), 0.39. The “Growth Rate” value is 0.38 in the data set on HEK-293T (setting [9]); 0.48 with HEK-293T (setting [5]); 0.42 in the data set on HEK-293T (setting [10]); 0.78 in the data set with U2OS (setting [6]); 0.43 in the data set with U2OS (setting [3]); 0.53 with U2OS (setting [8]). Further, the “Growth Rate” value in the data set with U2OS (setting [4]) is reported as 0.22; in the data set with U2OS (setting [9]), 0.38; with U2OS (setting [5]), 0.25; in the data set with U2OS (setting [10]), 0.35; in the data set with Fibroblast (setting [1]), 0.25; in the data set with Fibroblast (setting [6]) it was -0.23.

Turning to `CNC(=O)[C@H]1O[C@@H](n2cnc3c(NCc4cccc(I)c4)ncnc32)[C@H](O)[C@@H]1O` [IB-MECA], the “Growth Rate” value is 0.11 in the data set on HEK-293T (setting [1]); 0.3 in the data set on HEK-293T (setting [6]); 1 in the data set with HEK-293T (setting [8]); 0.64 in the data set on HEK-293T (setting [4]); 0.98 in the data set with HEK-293T (setting [9]); 0.64 in the data set with HEK-293T (setting [5]). For the same molecule, the “Growth Rate” value is recorded as 0.83 in the data set with HEK-293T (setting [10]); -0.65 in the data set on U2OS (setting [1]); -0.98 in the data set with U2OS (setting [6]); 0.98 in the data set with U2OS (setting [2]); 0.82 in the data set with U2OS (setting [7]); 0.89 in the data set on U2OS (setting [3]). For the same molecule, the “Growth Rate” value in the data set with U2OS (setting [8]) is reported as 0.85; with U2OS (setting [4]), 0.79; with U2OS (setting [9]), 0.76; in the data set with U2OS (setting [10]), 0.81; in the data set with Fibroblast (setting [1]), 0.22; in the data set on Fibroblast (setting [2]) it was 0.12. The “Growth Rate” value with Fibroblast (setting [7]) is reported as -0.56; in the data set with Fibroblast (setting [3]), 0.45; in the data set on Fibroblast (setting [8]), 0.1; in the data set on Fibroblast (setting [4]), 0.7; in the data set with Fibroblast (setting [9]), 0.24; with Fibroblast (setting [5]) it was 0.54. Moreover, in the data set with Fibroblast (setting [10]), the “Growth Rate” value worked out at 0.42.

On to `O=C1COc2nccc(-c3ccccc3F)c2CN1Cc1cc(C(F)(F)F)cc(C(F)(F)F)c1`, for which the “Growth Rate” value in the data set with HEK-293T (setting [7]) was 0.77; in the data set on HEK-293T (setting [8]), 0.89; in the data set with HEK-293T (setting [4]), 0.98; with HEK-293T (setting [9]) it was 0.88; with U2OS (setting [1]), -0.7; with U2OS (setting [8]), 0.96. Besides, the “Growth Rate” value was 0.97 in the data set with U2OS (setting [4]); 0.94 with U2OS (setting [9]); 0.88 in the data set on U2OS (setting [5]); 0.93 in the data set on U2OS (setting [10]); 0.17 in the data set with Fibroblast (setting [2]); 0.8 in the data set on Fibroblast (setting [3]). Besides, the “Growth Rate” value in the data set on Fibroblast (setting [4]) turned out to be 0.58; in the data set on Fibroblast (setting [5]), 0.73.

For `CSc1ccccc1N1CCN(CCCCCC(=O)NC2CCCc3ccccc32)CC1.Cl` (centres undefined), the “Growth Rate” value in the data set on HEK-293T (setting [2]) is -0.01; with HEK-293T (setting [7]) it was -0.04; in the data set on HEK-293T (setting [3]), 0.07; with HEK-293T (setting [8]), -0.09; in the data set with HEK-293T (setting [4]) it was 0.16; in the data set with HEK-293T (setting [9]) it was 0.15. Also, the “Growth Rate” value with HEK-293T (setting [5]) was 0.29; in the data set on HEK-293T (setting [10]), 0.17; in the data set with U2OS (setting [1]), -0.43; in the data set with U2OS (setting [6]) it was 0.92; in the data set with U2OS (setting [2]), 0.17; in the data set with U2OS (setting [3]), 0.43. The “Growth Rate” value in the data set on U2OS (setting [8]) worked out at 0.96; with U2OS (setting [4]), 0.53; with U2OS (setting [9]), 0.92; in the data set with U2OS (setting [5]), 0.76; in the data set with U2OS (setting [10]), 0.94; in the data set on Fibroblast (setting [1]), 0.06. Besides, the “Growth Rate” value was 0.95 in the data set on Fibroblast (setting [7]); 0.31 in the data set with Fibroblast (setting [3]); 0.26 with Fibroblast (setting [8]); 0.05 in the data set on Fibroblast (setting [4]); 0.24 in the data set with Fibroblast (setting [9]); -0.06 with Fibroblast (setting [5]). In the data set with Fibroblast (setting [10]), the “Growth Rate” value was 0.23.

On to `CCOc1nc2cccc(C(=O)O)c2n1Cc1ccc(-c2ccccc2-c2nnn[nH]2)cc1`, for which the “Growth Rate” value in the data set on HEK-293T (setting [1]) worked out at 0.86; in the data set with HEK-293T (setting [6]) it was 0.52; in the data set with HEK-293T (setting [7]), 0.94; in the data set on U2OS (setting [3]) it was 0.85; with U2OS (setting [8]), 0.99; in the data set with U2OS (setting [4]), 0.58. For the same molecule, the “Growth Rate” value was determined as 0.54 in the data set with Fibroblast (setting [6]); 0.77 in the data set with Fibroblast (setting [2]); 0.71 in the data set on Fibroblast (setting [7]); 0.56 in the data set with Fibroblast (setting [8]); 0.8 in the data set with Fibroblast (setting [4]); 0.89 in the data set on Fibroblast (setting [5]). For the same molecule, the “Growth Rate” value in the data set with Fibroblast (setting [10]) was found to be 0.45.

Consider `Nc1nc(CC(=O)Nc2ccc(CCNC[C@H](O)c3ccccc3)cc2)cs1` [MIRABEGRON], for which the “Growth Rate” value in the data set with HEK-293T (setting [1]) is reported as 0.8; in the data set on HEK-293T (setting [6]), 0.62; with U2OS (setting [1]) it was 0.18; in the data set on U2OS (setting [3]), 0.95; with U2OS (setting [4]), 0.54; with Fibroblast (setting [1]) it was 0.35. Further, the “Growth Rate” value was determined as 0.45 with Fibroblast (setting [6]), 0.68 in the data set on Fibroblast (setting [2]), 0.56 in the data set on Fibroblast (setting [7]) and 0.9 in the data set on Fibroblast (setting [3]).
